Reference: patent publication US20070026080A1, “Manufacturing process for tigecycline” (Wyeth, priority 2005, published 2007)

Assay: Strength and degradation profile of tigecycline 20 mg/mL bulk solutions by reversed phase HPLC (effect of temperature, time, pH, dissolved oxygen; Runs A to O)
Type: physicochemical
Settings: 2° C.
Experimental: The contents of the sample vials are dissolved in diluent. The sample solution is diluted, if necessary, and chromatographed on a reversed phase column using gradient elution. Impurities are determined by comparing the impurity peak areas in the sample preparation chromatogram to the average area of tigecycline peaks in the standard preparation chromatograms obtained concomitantly.
Chromatographic Column—Length about 15 cm, inside diameter about 4.6 mm, packed with Inertsil ODS2, 5 μm size particles or equivalent.
Detector—Ultraviolet spectrophotometric detector capable of operating at 248 nm with a sensitivity of about 0.5 absorbance units full scale.
The results of additional studies to investigate the effect of processing parameters such as temperature, time, and dissolved oxygen content on the purity profile of tigecycline solutions using the following materials, methods and procedures are presented in Tables A to O.
The experiments were run in plastic glove bags under normal laboratory light conditions. Plastic glove boxes will be used to control the headspace of the beakers. The batch size was 200 mL. • 1. Prepare the glove bag with a mixture of nitrogen and air to achieve an oxygen level in the solution as per the design. • 2. Place the jacketed beaker on the magnetic stirrer. Connect it to the cooler. Set the cooler to the desired set point. • 3. Add 200 mL of SWFI in to the beaker. Allow equilibrating. Measure the temperature and oxygen content. When it reaches the desired condition, add accurately weighed API and mix until dissolved. If necessary use spatula to aid dissolution. For pH adjustments, use 4 mL of either 0.1N NaOH or 0.1N HCl and 196 mL of WFI for manufacture. • 4. After complete dissolution, Transfer about 5.5 mL of Solution in vials and stopper them. These vials will be stoppered at the appropriate headspace conditions. Place the vials in appropriate temperature conditions. • 5. Sample the vials at 1, 4, 8, 10, 12 and 24 hours. Send the samples for analysis. Freeze the 10, 12 and 24 samples at −20° C. for analysis the following day. • 6. Measure pH and record color of the solution at each time point. Results
The 1-hour samples were taken directly from the beakers. Samples for later time points were collected in stoppered vials processed in the atmosphere of the bag in order to simulate the headspace conditions then placed in water baths or refrigerator to maintain there respective temperature conditions. This was done to maintain safety in the lab. Disposable plastic glove bags require constant flow of a mixture of nitrogen and air to maintain headspace oxygen level that will result in the desired dissolved oxygen (DO) content in the sample. The pH of samples was measured at each sample points.
Strength and degradation profile was analyzed by HPLC as described above. […] Degradation was slightly higher at higher temperature condition.

[1] = Run #K, 20 mg/mL, pH 8.2, Oxygen 0.1 mg/L, hours 1,4,8,10,12,24 at r6-r11, after 24 hours
[2] = Run #L, pH 7.7, Oxygen = 0.1 mg/L, 1 Hrs
[3] = Run #L, pH 7.7, Oxygen = 0.1 mg/L, 4 Hrs
[4] = Run #L, pH 7.7, Oxygen = 0.1 mg/L, 8 Hrs
[5] = Run #L, pH 7.7, Oxygen = 0.1 mg/L, 10 Hrs
[6] = Run #L, pH 7.7, Oxygen = 0.1 mg/L, 12 Hrs

## CN(C)c1cc(NC(=O)CNC(C)(C)C)c(O)c2c1C[C@H]1C[C@H]3[C@H](N(C)C)C(O)=C(C(N)=O)C(=O)[C@@]3(O)C(O)=C1C2=O [Tigecycline]
[1]
  RRT 0.74 Epimer: 0.17%
  RRT 1.45: 0.08%
  RRT 1.64 Mino: 0.14%
  RRT 1.85 MW = 597: 0.08%
  Strength: 19.067 mg/mL
  Total: 0.55%
[2]
  RRT 0.12 MW = 633: BRL (BRL means below reporting limit (meaning less than 0.05% of tigecycline peak))
  RRT 0.23 MW = 572: BRL (BRL means below reporting limit (meaning less than 0.05% of tigecycline peak))
  RRT 0.50 MW = 601: BRL (BRL means below reporting limit (meaning less than 0.05% of tigecycline peak))
  RRT 0.55 MW = 583: BRL (BRL means below reporting limit (meaning less than 0.05% of tigecycline peak))
  RRT 0.58: 0.08%
  RRT 0.64 9-Amino: BRL (BRL means below reporting limit (meaning less than 0.05% of tigecycline peak))
  RRT 0.74 Epimer: 0.17%
  RRT 0.76: BRL (BRL means below reporting limit (meaning less than 0.05% of tigecycline peak))
  RRT 0.78 MW = 557: BRL (BRL means below reporting limit (meaning less than 0.05% of tigecycline peak))
  RRT 1.12: BRL (BRL means below reporting limit (meaning less than 0.05% of tigecycline peak))
  RRT 1.45: 0.08%
  RRT 1.58: BRL (BRL means below reporting limit (meaning less than 0.05% of tigecycline peak))
  RRT 1.64 Mino: 0.14%
  RRT 1.67 MW = 556: BRL (BRL means below reporting limit (meaning less than 0.05% of tigecycline peak))
  RRT 1.85 MW = 597: 0.07%
  Strength: 19.23 mg/mL
  Total: 0.53%
[3]
  RRT 0.12 MW = 633: BRL (BRL means below reporting limit (meaning less than 0.05% of tigecycline peak))
  RRT 0.23 MW = 572: BRL (BRL means below reporting limit (meaning less than 0.05% of tigecycline peak))
  RRT 0.50 MW = 601: BRL (BRL means below reporting limit (meaning less than 0.05% of tigecycline peak))
  RRT 0.55 MW = 583: BRL (BRL means below reporting limit (meaning less than 0.05% of tigecycline peak))
  RRT 0.58: 0.08%
  RRT 0.64 9-Amino: BRL (BRL means below reporting limit (meaning less than 0.05% of tigecycline peak))
  RRT 0.74 Epimer: 0.17%
  RRT 0.76: BRL (BRL means below reporting limit (meaning less than 0.05% of tigecycline peak))
  RRT 0.78 MW = 557: BRL (BRL means below reporting limit (meaning less than 0.05% of tigecycline peak))
  RRT 1.12: BRL (BRL means below reporting limit (meaning less than 0.05% of tigecycline peak))
  RRT 1.45: 0.07%
  RRT 1.58: BRL (BRL means below reporting limit (meaning less than 0.05% of tigecycline peak))
  RRT 1.64 Mino: 0.15%
  RRT 1.67 MW = 556: BRL (BRL means below reporting limit (meaning less than 0.05% of tigecycline peak))
  RRT 1.85 MW = 597: 0.08%
  Strength: 19.053 mg/mL
  Total: 0.54%
[4]
  RRT 0.12 MW = 633: BRL (BRL means below reporting limit (meaning less than 0.05% of tigecycline peak))
  RRT 0.23 MW = 572: BRL (BRL means below reporting limit (meaning less than 0.05% of tigecycline peak))
  RRT 0.50 MW = 601: BRL (BRL means below reporting limit (meaning less than 0.05% of tigecycline peak))
  RRT 0.55 MW = 583: BRL (BRL means below reporting limit (meaning less than 0.05% of tigecycline peak))
  RRT 0.58: 0.08%
  RRT 0.64 9-Amino: BRL (BRL means below reporting limit (meaning less than 0.05% of tigecycline peak))
  RRT 0.74 Epimer: 0.17%
  RRT 0.76: 0.05%
  RRT 0.78 MW = 557: BRL (BRL means below reporting limit (meaning less than 0.05% of tigecycline peak))
  RRT 1.12: BRL (BRL means below reporting limit (meaning less than 0.05% of tigecycline peak))
  RRT 1.45: 0.08%
  RRT 1.58: BRL (BRL means below reporting limit (meaning less than 0.05% of tigecycline peak))
  RRT 1.64 Mino: 0.13%
  RRT 1.67 MW = 556: BRL (BRL means below reporting limit (meaning less than 0.05% of tigecycline peak))
  RRT 1.85 MW = 597: 0.08%
  Strength: 18.988 mg/mL
  Total: 0.60%
[5]
  RRT 0.12 MW = 633: BRL (BRL means below reporting limit (meaning less than 0.05% of tigecycline peak))
  RRT 0.23 MW = 572: BRL (BRL means below reporting limit (meaning less than 0.05% of tigecycline peak))
  RRT 0.50 MW = 601: BRL (BRL means below reporting limit (meaning less than 0.05% of tigecycline peak))
  RRT 0.55 MW = 583: BRL (BRL means below reporting limit (meaning less than 0.05% of tigecycline peak))
  RRT 0.58: 0.07%
  RRT 0.64 9-Amino: BRL (BRL means below reporting limit (meaning less than 0.05% of tigecycline peak))
  RRT 0.74 Epimer: 0.22%
  RRT 0.76: 0.05%
  RRT 0.78 MW = 557: BRL (BRL means below reporting limit (meaning less than 0.05% of tigecycline peak))
  RRT 1.12: BRL (BRL means below reporting limit (meaning less than 0.05% of tigecycline peak))
  RRT 1.45: 0.07%
  RRT 1.58: BRL (BRL means below reporting limit (meaning less than 0.05% of tigecycline peak))
  RRT 1.64 Mino: 0.13%
  RRT 1.67 MW = 556: BRL (BRL means below reporting limit (meaning less than 0.05% of tigecycline peak))
  RRT 1.85 MW = 597: 0.08%
  Strength: 19.424 mg/mL
  Total: 0.62%
[6]
  RRT 0.12 MW = 633: BRL (BRL means below reporting limit (meaning less than 0.05% of tigecycline peak))
  RRT 0.23 MW = 572: BRL (BRL means below reporting limit (meaning less than 0.05% of tigecycline peak))
  RRT 0.50 MW = 601: BRL (BRL means below reporting limit (meaning less than 0.05% of tigecycline peak))
  RRT 0.55 MW = 583: BRL (BRL means below reporting limit (meaning less than 0.05% of tigecycline peak))
  RRT 0.58: 0.07%
  RRT 0.64 9-Amino: BRL (BRL means below reporting limit (meaning less than 0.05% of tigecycline peak))
  RRT 0.74 Epimer: 0.23%
  RRT 0.76: BRL (BRL means below reporting limit (meaning less than 0.05% of tigecycline peak))
  RRT 0.78 MW = 557: BRL (BRL means below reporting limit (meaning less than 0.05% of tigecycline peak))
  RRT 1.12: BRL (BRL means below reporting limit (meaning less than 0.05% of tigecycline peak))
